From ChEMBL document CHEMBL3045779, “Microwave solvent-free condition synthesis and pharmacological evaluation of pyrano[3,2-c]quinolines” (2012) come the findings set out here.

Format in all cases: functional
Test [1] concerns Rattus norvegicus. The experiment in a line: Anti-inflammatory activity inRattus norvegicus albino (rat) assessed as inhibition of carrageenan-induced paw edema at 100 mg/kg administered 1 hr prior to carrageenan-challenge measured after 3 hr by plethysmometric analysis relative to control. A general note: In the carrageenan paw model, swelling and tenderness develop within hours.

The subject of test [2] is Rattus norvegicus. The experiment in a line: Anti-inflammatory activity inRattus norvegicus albino (rat) assessed as inhibition of carrageenan-induced paw edema at 100 mg/kg administered 1 hr prior to carrageenan-challenge measured after 2 hr by plethysmometric analysis relative to control.
In test [3] the test system is Rattus norvegicus. Description: Anti-inflammatory activity inRattus norvegicus albino (rat) assessed as inhibition of carrageenan-induced paw edema at 100 mg/kg administered 1 hr prior to carrageenan-challenge measured after 1 hr by plethysmometric analysis relative to control.
For test [4], the system named is Escherichia coli. The experiment in a line: Antibacterial activity against Escherichia coli at 100 ug/ml after 24 hr by paper disk diffusion method. The conditions noted are these: read-out: IZ. In general terms: A growth-free zone around the sample is the usual read-out of agar diffusion tests.
Test [5] relates to Escherichia coli. The experiment in a line: Antibacterial activity against Escherichia coli at 50 ug/ml after 24 hr by paper disk diffusion method. To be noted: read-out: IZ.
Test [6] has as its system Staphylococcus aureus. The experiment in a line: Antibacterial activity against Staphylococcus aureus at 100 ug/ml after 24 hr by paper disk diffusion method. The conditions noted are these: read-out: IZ.
Test [7] concerns Staphylococcus aureus. Description: Antibacterial activity against Staphylococcus aureus at 50 ug/ml after 24 hr by paper disk diffusion method. The conditions noted are these: read-out: IZ.

The inhibition in vivo is how much of the control response was suppressed. Consider `CCOC(=O)C1=C(N)Oc2c(c(O)nc3ccccc23)C1c1ccccc1` (centres undefined), for which the inhibition in vivo at 100 mg/kg with Rattus norvegicus [1] was 75.2%; in the test with Rattus norvegicus [2] it was 61.9%; in the test with Rattus norvegicus [3], 54.2%. Besides, the zone of inhibition at 100 µg/mL in the test on Escherichia coli [4] came out at 16.2 mm; with Staphylococcus aureus [6] it was 16.7 mm. In addition, the zone of inhibition at 50 µg/mL with Escherichia coli [5] worked out at 15.2 mm; in the test with Staphylococcus aureus [7], 15.6 mm.
In the case of `CCOC(=O)C1=C(N)Oc2c(c(=O)[nH]c3ccc(C)cc23)C1c1ccccc1Cl` (centres undefined), the inhibition in vivo at 100 mg/kg was 74.2% in the test with Rattus norvegicus [1], 68.1% in the test with Rattus norvegicus [2] and 58.1% in the test on Rattus norvegicus [3]. The zone of inhibition at 100 µg/mL in the test with Escherichia coli [4] and in the test with Staphylococcus aureus [6] was 17.3 mm in each case. Further, the zone of inhibition at 50 µg/mL in the test on Escherichia coli [5] was 15.4 mm; in the test on Staphylococcus aureus [7], 16.1 mm.
On to `CCOC(=O)C1=C(N)Oc2c(c(=O)[nH]c3ccc(C)cc23)C1c1cccc(Cl)c1` (centres undefined), for which the inhibition in vivo at 100 mg/kg with Rattus norvegicus [1] worked out at 75.5%; with Rattus norvegicus [2], 69.7%; in the test with Rattus norvegicus [3] it was 56.4%. Further, the values for the zone of inhibition at 100 µg/mL in the test with Escherichia coli [4] and in the test with Staphylococcus aureus [6] were 15.2 mm and 15.7 mm, respectively. Further, the results for the zone of inhibition at 50 µg/mL with Escherichia coli [5] and in the test on Staphylococcus aureus [7] were 14.1 mm and 14.6 mm, respectively.
Take `CCOC(=O)C1=C(N)Oc2c(c(=O)[nH]c3ccc(C)cc23)C1c1ccc(Cl)cc1` (centres undefined): the values for the inhibition in vivo at 100 mg/kg with Rattus norvegicus [1], with Rattus norvegicus [2] and with Rattus norvegicus [3] were 77.7%, 70.3% and 59.4%, respectively. Besides, the figures for the zone of inhibition at 50 µg/mL with Escherichia coli [5] and with Staphylococcus aureus [7] were 15.4 mm and 15.8 mm, respectively. The zone of inhibition at 100 µg/mL in the test with Staphylococcus aureus [6] amounted to 18.5 mm.
As to `CCOC(=O)C1=C(N)Oc2c(c(=O)[nH]c3ccc(C)cc23)C1c1ccc(O)cc1` (centres undefined), the inhibition in vivo at 100 mg/kg with Rattus norvegicus [1] was 69.2%; with Rattus norvegicus [2] it was 70.4%; in the test with Rattus norvegicus [3] it was 57.1%. Further, the values for the zone of inhibition at 100 µg/mL in the test with Escherichia coli [4] and in the test with Staphylococcus aureus [6] were 18.2 mm and 19.7 mm, respectively. The zone of inhibition at 50 µg/mL with Escherichia coli [5] amounted to 16.2 mm; in the test on Staphylococcus aureus [7] it was 17.6 mm.
In the case of `CCOC(=O)C1=C(N)Oc2c(c(=O)[nH]c3ccc(C)cc23)C1c1cccc([N+](=O)[O-])c1` (centres undefined), the inhibition in vivo at 100 mg/kg in the test with Rattus norvegicus [1] was 75.5%; in the test with Rattus norvegicus [2], 70.3%; with Rattus norvegicus [3], 54.3%. In addition, the zone of inhibition at 100 µg/mL in the test on Escherichia coli [4] worked out at 17.4 mm; in the test on Staphylococcus aureus [6], 19.2 mm. Also, the zone of inhibition at 50 µg/mL with Escherichia coli [5] is 16.5 mm; with Staphylococcus aureus [7], 18.1 mm.
For `CCOC(=O)C1=C(N)Oc2c(c(=O)[nH]c3ccc(C)cc23)C1c1ccccc1` (centres undefined), the inhibition in vivo at 100 mg/kg with Rattus norvegicus [1] is 75.2%; with Rattus norvegicus [2], 71.1%; in the test on Rattus norvegicus [3], 56.2%. Also, the zone of inhibition at 100 µg/mL in the test on Escherichia coli [4] is 16.2 mm. Further, the zone of inhibition at 50 µg/mL with Escherichia coli [5] was 15.7 mm; in the test on Staphylococcus aureus [7], 14.7 mm.
In the case of `CCOC(=O)C1=C(N)Oc2c(c(=O)[nH]c3ccccc23)C1c1ccccc1Cl` (centres undefined), the inhibition in vivo at 100 mg/kg with Rattus norvegicus [1] was 80.6%; with Rattus norvegicus [2] it was 69.4%; in the test with Rattus norvegicus [3], 55.6%. Also, the zone of inhibition at 100 µg/mL with Escherichia coli [4] turned out to be 15 mm; in the test with Staphylococcus aureus [6] it was 16.3 mm. Also, the zone of inhibition at 50 µg/mL with Escherichia coli [5] was found to be 13.7 mm; in the test on Staphylococcus aureus [7] it was 15.2 mm.
With `CCOC(=O)C1=C(N)Oc2c(c(=O)[nH]c3ccccc23)C1c1cccc(Cl)c1` (centres undefined), the inhibition in vivo at 100 mg/kg came out at 75.9% with Rattus norvegicus [1], 68.5% in the test with Rattus norvegicus [2] and 57.6% with Rattus norvegicus [3]. For the same compound, the zone of inhibition at 50 µg/mL with Escherichia coli [5] amounted to 14.1 mm; in the test on Staphylococcus aureus [7], 15.4 mm. The zone of inhibition at 100 µg/mL in the test with Staphylococcus aureus [6] was 15.7 mm.
Regarding `CCOC(=O)C1=C(N)Oc2c(c(=O)[nH]c3ccccc23)C1c1ccc(Cl)cc1` (centres undefined), the inhibition in vivo at 100 mg/kg with Rattus norvegicus [1] worked out at 80.7%; in the test with Rattus norvegicus [2] it was 66.1%; with Rattus norvegicus [3], 56.2%. The figures for the zone of inhibition at 100 µg/mL in the test with Escherichia coli [4] and in the test with Staphylococcus aureus [6] were 16.2 mm and 16.7 mm, respectively. Also, the results for the zone of inhibition at 50 µg/mL with Escherichia coli [5] and in the test with Staphylococcus aureus [7] were 15.2 mm and 16.3 mm, respectively.
As to `CCOC(=O)C1=C(N)Oc2c(c(=O)[nH]c3ccccc23)C1c1ccc(O)cc1` (centres undefined), the inhibition in vivo at 100 mg/kg in the test with Rattus norvegicus [1] turned out to be 75.2%; in the test with Rattus norvegicus [2] it was 63.4%; in the test with Rattus norvegicus [3], 58.4%. Moreover, the figures for the zone of inhibition at 100 µg/mL in the test on Escherichia coli [4] and with Staphylococcus aureus [6] were 17 mm and 17.6 mm, respectively. For the same compound, the zone of inhibition at 50 µg/mL in the test on Escherichia coli [5] was 15.7 mm; with Staphylococcus aureus [7] it was 16.9 mm.
For `CCOC(=O)C1=C(N)Oc2c(c(=O)[nH]c3ccccc23)C1c1cccc([N+](=O)[O-])c1` (centres undefined), the inhibition in vivo at 100 mg/kg with Rattus norvegicus [1] amounted to 79.3%; with Rattus norvegicus [2], 69%; with Rattus norvegicus [3] it was 53.5%. For the same compound, the zone of inhibition at 100 µg/mL in the test with Escherichia coli [4] is 17 mm. Further, the zone of inhibition at 50 µg/mL amounted to 16.1 mm with Escherichia coli [5] and 17.3 mm with Staphylococcus aureus [7].
In the case of `CC1COc2c(N3CCN(C)CC3)c(F)cc3c(=O)c(C(=O)O)cn1c23` (centres undefined) [OFLOXACIN], the zone of inhibition at 100 µg/mL in the test with Staphylococcus aureus [6] is 24.3 mm. Moreover, in the test on Staphylococcus aureus [7], the zone of inhibition at 50 µg/mL came out at 21.2 mm.
`CN[C@@H]1[C@H](O[C@H]2[C@H](O[C@H]3[C@H](O)[C@@H](O)[C@H](N=C(N)N)[C@@H](O)[C@@H]3N=C(N)N)O[C@@H](C)[C@]2(O)C=O)O[C@@H](CO)[C@H](O)[C@H]1O` [STREPTOMYCIN]: the zone of inhibition at 100 µg/mL with Escherichia coli [4] was determined as 25.2 mm. The zone of inhibition at 50 µg/mL in the test on Escherichia coli [5] turned out to be 20.1 mm.
